In paper PMC10149936, “Cofilin activation in pancreatic acinar cells plays a pivotal convergent role for mediating CCK-stimulated enzyme secretion and growth” (Frontiers in Physiology, 2023):

Columns and labels:
[1] = system: cofilin (pS3) in rat pancreatic acini; assay: cofilin activation (phospho-pS3 cofilin Western blot) in isolated rat pancreatic acini; type: cell-based; details: for reversal of cofilin dephosphorylation by CCK-8: Wortmannin 1 µM, LY294002 100 µM, SB202190 10 µM, U0126 10 µM, Y-27632 10 µM 1 h, SP600125 20 µM 3 h; for decrease of basal level of cofilin phosphorylation / inhibition of cofilin activation stimulated by CCK-8: calyculin A 1 nM or okadaic acid 10 nM
Procedure: Pancreatic acini preparations were obtained by collagenase digestion as previously described ([Bissonnette et al., 1984]; [Sato et al., 1989]; [Ramos-Alvarez and Jensen, 2018]). After collagenase digestion, dispersed acini were preincubated with different inhibitors in standard incubation solution ([Ramos-Alvarez and Jensen, 2018]; [Ramos-Ãlvarez et al., 2020]) for 3 h at 37°C under conditions specific for PKD/PKC, Src, PI3K, MAPKs, SSH1, LIMK, cofilin, other phosphatases and PAK4 inhibitors, as described previously ([Ramos-Alvarez and Jensen, 2018]; [Ramos-Ãlvarez et al., 2020]). Isolated acini and CCK1-R/Panc-1 cells (M&M 2.2.1) were also preincubated with two SSH1 inhibitors, D3 (25 μM, 1 h) ([Li et al., 2015]) or SE (50 μM, 3 h for acini; 24 h for CCK1-R/Panc-1 cells) ([Lee et al., 2017]). After preincubation, 1 mL aliquots of dispersed acini were incubated at 37°C for 3–15 min with CCK-8 (0.3 nM or 100 nM), for 5–15 min with TPA (1 µM) or without stimulants, used as control. Cells were lysed in lysis buffer (50 mM Tris/HCl pH 7.5, 150 mM NaCl, 1% Triton X-100, 1% deoxycholate, 0.1% sodium azide, 1 mM EGTA, 0.4 mM EDTA, 0.2 mM sodium orthovanadate, 1 mM PMSF, and one protease inhibitor tablet per 10 mL). After sonication, lysates were centrifuged at 10,000×g for 15 min at 4°C and protein concentration was measured using the Bio-Rad protein assay reagent. Finally, cells were processed as below for Western blotting.
Both concentrations of CCK-8 were used because CCK-8 is reported to have different responses with physiological and supraphysiological concentrations contributing to physiological and pathophysiological processes such as pancreatitis ([Dufresne et al., 2006]).
Western blotting and immunoprecipitation were performed as described previously ([Ramos-Alvarez and Jensen, 2018]). Whole cell lysates were subjected to SDS-PAGE using 4%–20% Tris–Glycine gels. […] Finally, membranes were then washed again twice in blocking buffer for 4 min, twice in washing buffer for 4 min, incubated for 4 min with chemiluminescence detection reagents. The intensity of the protein bands was measured using GeneTools software from Syngene, which were assessed in the linear detection range.
All experiments were performed at least 3 times. Data are presented as mean ± SEM and were analyzed with the non-parametric Kruskal–Wallis analysis (data was not normally distributed) and the Dunn’s multiple comparison test using the GraphPad Prism 8.0 software. P values < 0.05 were considered significant.
(A) Isolated pancreatic acini were incubated in the absence or presence of CCK-8 (100 nM), carbachol (1 μM), bombesin (1 nM), secretin (1 nM) or VIP (1 nM) for 1 min and then lysed. (B) Isolated pancreatic acini were incubated in the absence or presence of CCK-8 and CCK-JMV (at the indicate concentrations) for 3 min and then lysed. Western blots were analyzed using anti-pS3 cofilin, which mediates the activation state of cofilin. Bands were visualized using chemiluminescence and quantified by densitometry.

[2] = system: cofilin in human T lymphocytes; details: stimulated by CD2 or CD28; ref Ambach et al., 2000; cited from earlier work
Excerpt: (§1) Because our results differ from the general finding that the two major signaling cascades in other tissues mediating cofilin activity, which involve alterations in LIMK and/or SSH1 activity ([Wang et al., 2005]; [Spratley et al., 2011]; [Mizuno, 2013]; [Ohashi, 2015]; [Xu et al., 2021]), were not important in mediating CCK’s activation of cofilin in pancreatic acini, we explored the possible involvement of other phosphatases that have been reported to participate in cofilin activation in other tissues with other stimulants. The activation of the serine/threonine phosphatases type 1 (PP1) or ty ...

[3] = system: MEK1; details: non ATP-competitive; reference not given; cited from earlier work
[4] = system: MEK2; details: non ATP-competitive; reference not given; cited from earlier work
[5] = system: p38α; details: reference not given; cited from earlier work
[6] = system: p38β; details: reference not given; cited from earlier work
[7] = system: PP2A; details: cited from earlier work
Excerpt: as §1

[8] = system: PP2A / PP1; details: low concentrations; ref Ishihara et al., 1989; Takai et al., 1992; Lutz et al., 1993; Schmidt et al., 1994; Walsh et al., 1997; cited from earlier work
Excerpt: (Figures 5, 6) In human T lymphocytes, neurons, the 293 T cell line (human embryonic kidney 293 cells) and HeLa cells, it is reported that activation of cofilin can occur due its dephosphorylation through the co-stimulation activation of accessory receptors (e.g.,.CD2, CD3 or CD28) by CD3xCD28 mAb, with Endothelin-1 (ET-1), and the Ca^2+ ionophore A23187, which is mediated by activation of serine protein phosphatases ([Ambach et al., 2000]; [Wang et al., 2005]; [Tam et al., 2019]). Therefore, to explores the possible role of the protein phosphatases PP1, PP2A, PP2B in CCK-8-induced activation ...

[9] = system: pancreas; parameters: method as in Waschulewski et al., 1996; details: ref Waschulewski et al., 1996; cited from earlier work
[10] = system: parotid acinar cells; parameters: method as in Tamaki and Yamashina, 2002; details: ref Tamaki and Yamashina, 2002; cited from earlier work
[11] = system: JNK1-3; details: reversible ATP-competitive; reference not given; cited from earlier work
Excerpt: (Figure 10) In various tissues with difference stimuli, cofilin dephosphorylation and activation, has been reported to be mediated by PI3K, ROCK and various MAPKs (p38, p44/42, JNK) ([Won et al., 2008]; [Duan et al., 2014]), therefore we assessed their possible role in CCK-8-stimulated cofilin activation. Previous studies have shown that, in pancreatic acini and/or other tissues, CCK-8 activates each of these signaling cascades ([Berna et al., 2009]; [Camello-Almaraz et al., 2009]; [Ramos-Alvarez and Jensen, 2018]; [Ramos-Ãlvarez et al., 2020]). In order to address the role of these signal cas ...

[12] = system: cofilin / phospho-PP2A association; assay: co-immunoprecipitation of cofilin with phospho-PP2A (pY307) in pancreatic acini; type: cell-based, rat; details: legend: kbNB 0.1 µM or PP2 10 µM, 3 h; CCK-8 100 nM, TPA 1 µM
Procedure: For co-immunoprecipitation, 600 μg of protein was incubated with 15 μL of the anti-cofilin antibody (Santa Cruz Biotechnology, Inc. Dallas, TX) and 25 μL of protein A/G agarose beads (Thermo-Fisher Scientific. Waltham, MA) overnight at 4°C under agitation. Samples were washed three times with lysis buffer, re-suspended in 12.5 μL of Sample Buffer, Laemlii 2x concentrate and boiled for 5 min before western blotting.
FIGURE 8 Effect of a PKD inhibitor, kbNB, or a Src inhibitor, PP2, on the ability of CCK-8 (100 nM) and TPA (1 µM) to stimulate the association of cofilin with either phospho-PP2A (A) or total PP2A (B). Isolated pancreatic acini were incubated in the absence or presence of kbNB (0.1 µM) or PP2 (10 µM) for 3 h and then incubated with no addition (control), CCK-8 (100 nM, 3 min) or TPA (1 μM, 5 min), and then lysed. Equal amounts of protein were co-immunoprecipitated with an anti-cofilin (Santa Cruz, SC-376476) and then subjected to Western blots using anti-pY307 PP2A and anti-PP2A. Bands were visualized using chemiluminescence and quantified by densitometry. Top: Results of a representative blot of four independent experiments are shown. Bottom: Means ± S.E. of at least 4 independent experiments. Results are expressed as % of basal stimulation of the control group. N.S., No significant.

[13] = 3 h, CCK-8 0.3 and 100 nM 3 min

C=CC[C@@H]1/C=C(\C)C[C@H](C)C[C@H](OC)[C@H]2O[C@@](O)(C(=O)C(=O)N3CCCC[C@H]3C(=O)O[C@H](/C(C)=C/[C@@H]3CC[C@@H](O)[C@H](OC)C3)[C@H](C)[C@@H](O)CC1=O)[C@H](C)C[C@@H]2OC [FK-506]
effect on CCK-8 or TPA's activation of cofilin ([1]; FK-506 10 µM 3 h, CCK-8 0.3 and 100 nM 3 min, TPA 1 µM 5 min): had no effect | effect on dephosphorylation of cofilin in human T lymphocytes [2]: did not affect the dephosphorylation of cofilin in human T lymphocytes

N#CC(=C(/N)Sc1ccccc1N)/C(C#N)=C(/N)Sc1ccccc1N [U0126]
reversal of cofilin dephosphorylation by CCK-8 ([1]; CCK-8 0.3 and 100 nM 3 min): Only preincubation with the JNK inhibitor, SP600125 (Figure 10C), and the ROCK inhibitor, Y-27632, (Figure 10D), completely reversed cofilin dephosphorylation by CCK-8 | IC50 [3]: 72 nM | IC50 [4]: 58 nM

Oc1ccc(-c2nc(-c3ccncc3)c(-c3ccc(F)cc3)[nH]2)cc1 [SB202190]
reversal of cofilin dephosphorylation by CCK-8 ([1]; CCK-8 0.3 and 100 nM 3 min): not PI3K or p38 | IC50 [5]: […] | IC50 [6]: […]

C=C1[C@@H](O)[C@@H]2O[C@]3(CC[C@H](/C=C/[C@@H](C)[C@@H]4CC(C)=C[C@@]5(O[C@H](C[C@@](C)(O)C(=O)O)CC[C@H]5O)O4)O3)CC[C@H]2O[C@@H]1[C@@H](O)C[C@H](C)[C@H]1O[C@@]2(CCCCO2)CC[C@H]1C [okadaic acid]
decrease of basal level of cofilin phosphorylation ([1]; 3 h, no stimulant): 12% | inhibition of cofilin activation stimulated by CCK-8 [1, 13]: completely inhibited | phosphatase selectivity in pancreatic acini ([7]; nanomolar concentrations, pancreatic acini, ref Wagner et al., 1992): only inhibit PP2A | IC50 ([7]; pancreatic acinar cells, ref Lutz et al., 1993, read-out: IC50, CCK1R-stimulated phosphatase activity (PP2A) in cytosol of pancreatic acinar cells): 0.2 nM | greater inhibitory effect on PP2A over PP1 [8]: 50-250 fold | effect on stimulated enzyme secretion in pancreas [9]: completely blocked stimulated enzyme secretion in pancreas | effect on amylase release in parotid acinar cells [10]: disrupted amylase release in parotid acinar cells

Oc1c2ccccc2c2c3c(cccc13)N=N2 [SP600125]
reversal of cofilin dephosphorylation by CCK-8 ([1]; CCK-8 0.3 and 100 nM 3 min): completely reversed | IC50 [11]: 110 nM

CN(C)CCCn1cc(C2=C(c3c[nH]c4ccccc34)C(=O)NC2=O)c2ccccc21 [GF109203X]
effect on basal phosphorylation level of cofilin ([1]; GFX 5 µM, kbNB 0.1 µM or PP2 10 µM, 3 h, no stimulant): None of these inhibitors altered the basal phosphorylation level of cofilin | reversal of cofilin dephosphorylation stimulated by CCK-8 and TPA ([1]; GFX 5 µM, kbNB 0.1 µM or PP2 10 µM, 3 h, CCK-8 100 nM 3 min, TPA 1 µM 5 min): completely reversed | inhibition of decrease in phospho-PP2A co-immunoprecipitation stimulated by CCK-8 and TPA [12]: completely inhibited

COC[C@@H]([C@H](O)[C@H](O)C(=O)NCC[C@H](C)c1nc(/C=C/C[C@@H]2O[C@]3(C[C@@H](O)[C@@H]2C)O[C@H]([C@H](C[C@H](O)[C@H](C)[C@H](O)[C@H](C)/C=C(C)/C(C)=C/C=C/C(C)=C\C#N)OC)[C@H](OP(=O)(O)O)C3(C)C)co1)N(C)C [calyculin A]
decrease of basal level of cofilin phosphorylation ([1]; 3 h, no stimulant): 24% | inhibition of cofilin activation stimulated by CCK-8 [1, 13]: completely inhibited | selectivity PP1/PP2A/PP2B [8]: inhibits equally PP1 and PP2A activity, but not PP2B
